Earlier results, collected in patent US20170095445A1 (priority 2012, published 2017).
Residues, ends and D or L forms follow the SMILES beside them.

Tested on: asthma induced by sensitization and challenge with ovalbumin
Conditions: mouse, in vivo

SMILES: CC(=O)NC(CS)C(=O)N1CCCC1C(=O)NC(CS)C(N)=O (stereo not drawn) [R-901, 1-(2-acetamido-3-mercaptopropanoyl)-N-(1-amino-3-mercapto-1-oxopropan-2-yl) pyrrolidine-2-carboxamide] (Ac-Cys-Pro-Cys-NH2; configuration not given here)
- efficacy in murine model of asthma: efficacious
